This is an account of results in ChEMBL document CHEMBL1649263, “In vitro activity of a new quinoline derivative, ER-2, against clinical isolates of Mycoplasma pneumoniae and Mycoplasma hominis” (2009).

Values after ≈ are worked out from the molar mass of the structure shown.

Assay [1] has as its system Metamycoplasma hominis. The assay can be described thus: Antimicrobial activity against Mycoplasma hominis by agar dilution method. It counts as functional.
Assay [2] deals with Mycoplasmoides pneumoniae. The assay can be described thus: Antimicrobial activity against Mycoplasma pneumoniae by agar dilution method. Type of assay: functional.

Consider `CCC[C@@H]1C[C@@H](C(=O)N[C@@H]([C@H]2O[C@H](SC)[C@H](O)[C@@H](O)[C@H]2O)[C@H](C)Cl)N(C)C1` [CLINDAMYCIN], for which, in assay [1], the MIC50 is 0.032 µg/mL (≈ 0.0753 µM) and the MIC90 is 0.032 µg/mL (≈ 0.0753 µM).
Turning to `CC[C@H]1OC(=O)[C@H](C)[C@@H](O[C@H]2C[C@@](C)(OC)[C@@H](O)[C@H](C)O2)[C@H](C)[C@@H](O[C@@H]2O[C@H](C)C[C@H](N(C)C)[C@H]2O)[C@](C)(O)C[C@@H](C)CN(C)[C@H](C)[C@@H](O)[C@]1(C)O` [AZITHROMYCIN], in assay [2], inhibition of growth (MIC) required 1 ng/mL (≈ 0.00134 µM), the MIC50 came to 0.001 µg/mL (≈ 0.00134 µM) and the MIC90 was 0.016 µg/mL (≈ 0.0214 µM).
As to `COc1c(N2C[C@@H]3CCCN[C@@H]3C2)c(F)cc2c(=O)c(C(=O)O)cn(C3CC3)c12` [MOXIFLOXACIN], in assay [2], it took 60 ng/mL (≈ 0.149 µM) to inhibit growth (MIC), the MIC50 was found to be 0.06 µg/mL (≈ 0.149 µM) and the MIC90 came out at 0.12 µg/mL (≈ 0.299 µM). In assay [1], this molecule had an MIC of 0.063 µg/mL (≈ 0.157 µM), an MIC50 of 0.06 µg/mL (≈ 0.149 µM) and an MIC90 of 0.06 µg/mL (≈ 0.149 µM).
In assay [2], `C[C@H]1c2cccc(O)c2C(=O)C2=C(O)[C@]3(O)C(=O)C(C(N)=O)=C(O)[C@@H](N(C)C)[C@@H]3[C@@H](O)[C@@H]21.O` [DOXYCYCLINE] had an MIC50 of 0.25 µg/mL and an MIC90 of 0.25 µg/mL. In assay [1], this molecule had an MIC50 of 2 µg/mL and an MIC90 of 2 µg/mL.
In assay [2], `CO/N=C1\CN(c2nc3c(cc2F)c(=O)c(C(=O)O)cn3C2CC2)CC1CN` (stereo not given) [GEMIFLOXACIN] returned an MIC50 of 0.032 µg/mL (≈ 0.0822 µM) and an MIC90 of 0.125 µg/mL (≈ 0.321 µM).
For the molecule `CN(C)[C@@H]1C(O)=C(C(N)=O)C(=O)[C@@]2(O)C(O)=C3C(=O)c4c(O)cccc4[C@@](C)(O)[C@H]3C[C@@H]12` [TETRACYCLINE], the values for the MIC50 in assay [2] and in assay [1] were 1 µg/mL (≈ 2.25 µM) and 8 µg/mL (≈ 18 µM), respectively. Besides, the MIC90 in assay [2] is 1 µg/mL (≈ 2.25 µM); in assay [1] it was 8 µg/mL (≈ 18 µM).
Turning to `COc1c(N2CCNC(C)C2)c(F)cc2c(=O)c(C(=O)O)cn(C3CC3)c12` (stereo not given) [GATIFLOXACIN], the MIC50 in assay [2] and in assay [1] was 0.125 µg/mL (≈ 0.333 µM) each time. Also, the MIC90 in assay [2] and in assay [1] was 0.125 µg/mL (≈ 0.333 µM) throughout.
As to `CN1C(=O)C2CC3C4Nc5ccc(Cl)cc5C(C)(C)C4CN3C2N(C)C1=O` (stereo not given), in assay [2], 1 ng/mL (≈ 0.00257 µM) was the least that counted as inhibitory (MIC), the MIC50 is 0.001 µg/mL (≈ 0.00257 µM) and the MIC90 was 0.016 µg/mL (≈ 0.0411 µM). In assay [1], this molecule showed an MIC50 of 0.032 µg/mL (≈ 0.0823 µM) and an MIC90 of 0.06 µg/mL (≈ 0.154 µM).
`O=C(O)c1cn(C2CC2)c2cc(N3CCNCC3)c(F)cc2c1=O` [CIPROFLOXACIN]: in assay [2], the MIC50 came out at 4 µg/mL (≈ 12.1 µM) and the MIC90 was found to be 4 µg/mL (≈ 12.1 µM). In addition, in assay [1], the MIC50 stood at 1 µg/mL (≈ 3.02 µM) and the MIC90 stood at 1 µg/mL (≈ 3.02 µM).
In assay [2], `C[C@H]1COc2c(N3CCN(C)CC3)c(F)cc3c(=O)c(C(=O)O)cn1c23.C[C@H]1COc2c(N3CCN(C)CC3)c(F)cc3c(=O)c(C(=O)O)cn1c23.O` [LEVOFLOXACIN] came in with an MIC of 12 ng/mL, an MIC50 of 1 µg/mL and an MIC90 of 1 µg/mL. In assay [1], it took 0.1 µg/mL to inhibit growth (MIC), the MIC50 was found to be 0.25 µg/mL and the MIC90 worked out at 0.5 µg/mL.
